These results are taken from US10550379B2, “Degron fusion constructs and methods for controlling protein production” (THE BOARD OF TRUSTEES OF THE LELAND STANFORD JUNIOR …, priority 2015, dated 2020).

“Also recorded” adds a separate entry of the source. Peptide text beside a SMILES is read from it. * marks the point of attachment. Cbz = O=C(OCc1ccccc1)*

Series [1] has as its system YFP-NS3pro-NS4A. As to the kind of experiment: degradation pathway of YFP-NS3pro-NS4A in HeLa cells. Format: cell-based. Particulars: ASV 1 μM, 18 to 24 hours post-transfection, MG132 10 μM, bortezomib 66 nM, chloroquine 100 μM, bafilomycin-A1 200 nM. The source says: FIGS. 8A-8D show characterization of a degron contained in NS3pro-NS4A. […] The hydrophobic N-terminal of NS4A then inserts into the membrane (right). Elements are numbered from N-terminus to C-terminus to clarify order of linkage. […] Removal of the NS3 helicase domain may expose hydrophobic residues in the helicase C-terminus and prevent cleavage at the NS3/4A site, preventing membrane insertion of NS4A. Models were generated using PDB file 1CU1. […] HeLa cells expressed YFP (FIG. 8C) or PSD95 (FIG. 8D) fused to NS3pro-NS4A (wt), or the degron-disrupted mutant (GGS). From 18 to 24 hours post-transfection, cells were treated with ASV (1 μM) and degradation inhibitors (MG, MG132 10 μM; BTZ, bortezomib 66 nM; CHQ, chloroquine 100 μM; BAF, bafilomycin-A1 200 nM). This short time window was used to avoid toxicity by degradation inhibitors. Final DMSO concentration was 0.23% (v/v) for all conditions in (FIG. 8C) and 0.33% for all conditions in (FIG. 8D).
To determine which cellular proteolytic pathways were responsible for degrading NS3pro-NS4A fusions, we examined the effect of inhibiting proteasomes or autophagosomes. We allowed cells expressing YFP-NS3pro-NS4A to produce uncleaved YFP-NS3pro-NS4A in asunaprevir while applying inhibitors of proteasome or autophagosome degradation (FIG. 8C).
Chemical Reagents. […]. Further serial dilutions were performed for the dose-dependency experiment. For long-term CLV and ASV incubations, drug was applied simultaneously with transfection media or 1-2 hours after transfection. MG132 (Sigma) was dissolved in DMSO for a 1000× working stock of 10 mM. Bortezomib (Adooq Biosci.) was dissolved in DMSO for a 500× working stock of 33 μM. Chloroquine diphosphate salt (Sigma) was dissolved in H2O for a 1000× (100 mM) working stock. Bafilomycin A1 (Santa Cruz) was dissolved in DMSO for a 500× (100 μM) working stock. Azidohomoalanine (AHA) (Click-IT, Invitrogen) was dissolved in DMSO for a 500× working stock of 25 mM. Alkyne-PEG4-biotin (Invitrogen) was dissolved in DMSO for a 100× working stock of 4 mM. L-cystine dihydrochloride (Sigma) was dissolved in H2O pH 2.0 for a working stock of 0.1 M.

For series [2], the target named is GluRIIA-CFP-SMASh (Hepatitis C virus genotype 1a, UniProt P27958, T1080A/T1100M/T1173A). Format: cell-based, Drosophila. To be noted: HEK293, 24 hours.
Series [3] has as its system SMASh-YFP or YFP-SMASh. As to the kind of experiment: SMASh tag at either terminus of YFP in HEK293 cells. Format: cell-based. To be noted: HEK293, 24 hours. From the text:
NS3 protease sequence (light gray), sequence derived from NS3 helicase (dark gray), and sequence derived from NS4A (medium gray) are shown. NS5A/5B-based protease substrate site is in dark gray. […] DMSO was used as vehicle control. β-actin served as a loading control. […] Scale bar, […].

For series [4] the following is noted: in vivo, po; cited from earlier work.
In series [5] the test system is panel of cellular proteases. Particulars: 1.5 μM; cited from earlier work.
The test system of series [6] is SEC14-SMASh yeast. Description: yeast spotting assay, SEC14-SMASh knock-in. Particulars: ASV (3 μM), 48 hours.
The subject of series [7] is SMASh-Arc. As to the kind of experiment: optimization of N-terminal SMASh tag on Arc in HEK293 cells, immunoblot. Particulars: HEK293, 24 hours.
Series [8] has as its system YSH1-SMASh yeast. Description: yeast spotting assay, YSH1-SMASh knock-in. Particulars: ASV (10 μM), 48 hours.
The subject of series [9] is MeV-EGFP-P-SMASh. As to the kind of experiment: drug control of MeV-EGFP-P-SMASh in infected Vero cells.
Series [10] has as its system SMASh-YFP or YFP-SMASh. Description: drug repression of SMASh-tagged YFP in budding yeast. The class given is cell-based, S. cerevisiae. Particulars: 24 hours, SD media. From the text: When expressed in yeast from an episomal gene, we found the C-terminal SMASh tag with a protease cleavage site of sequence DEMEEC/S was able to confer drug repression on YFP expression, similarly to its performance in mammalian cells (FIG. 5A, lane 4-6). However, the N-terminal SMASh tag and fast-cleaving site (EDVVPC/S) used in mammalian cells allowed leaky expression of YFP in yeast in the presence of drug (data not shown). […] . […] To the best of our knowledge, SMASh is the first method that uses a single genetic element to impose drug control over the expression of specific proteins in yeast.
Yeast Strains and Cell Growth.

Series [11] relates to MeV-EGFP. Description: drug effect on parental MeV-EGFP in infected Vero cells. To be noted: presence of asunaprevir, 72 hours.
In series [12] the test system is HEK293 cells. As to the kind of experiment: protein half-life by SMASh shutoff, immunoblotting and mathematical model. A general note: A western blot detects proteins with antibodies after separation by electrophoresis.
The test system of series [13] is AID target protein expressed from the ADH promoter. Particulars: cited from earlier work.

As to `CCN(CC)CCCC(C)Nc1ccnc2cc(Cl)ccc12` (centres unmarked) [chloroquine], the YFP-NS3pro-NS4A protein levels result in [1] was “modestly increased”.
With `COc1ccc2c(O[C@@H]3C[C@H]4C(=O)N[C@]5(C(=O)O)C[C@H]5/C=C\CCCCC[C@H](NC(=O)OC5CCCC5)C(=O)N4C3)cc(-c3csc(NC(C)C)n3)nc2c1` [ciluprevir], in series [2], the GluRIIA expression entry is recorded as “shutoff”.
With `C=C[C@@H]1C[C@]1(NC(=O)[C@@H]1C[C@@H](Oc2ncc(OC)c3ccc(Cl)cc23)CN1C(=O)[C@@H](NC(=O)OC(C)(C)C)C(C)(C)C)C(=O)NS(=O)(=O)C1CC1` [asunaprevir], the “YFP fluorescence in living cells” value in [3] is reported as “nearly undetectable”. The “cleaved and full-length YFP protein, immunoblot” value in series [3] (N-terminal or C-terminal fusions) is reported as “significantly reduced”. In addition, the “concentration that can be maintained in plasma and organs for hours” value in [4] is 150 nM. In addition, the “activity against a panel of cellular proteases” value in [5] is “no activity”. In series [6], the “growth of SEC14-SMASh yeast” value is recorded as “complete growth inhibition”. Besides, in series [7], the “Arc protein suppression, 6-aa linker with the NS5A/5B substrate” value was “complete protein suppression” and the “Arc protein suppression, 18-aa linker with the NS5A/5B substrate” value was “incomplete”. Also, the “growth of YSH1-SMASh yeast” value in series [8] is “suppressed”. For the same compound, in [9] (3 μM ASV, 3 days post-transfection (so in the source), Vero cells), the “suppression of EGFP fluorescence compared to the untreated case” value is reported as 97.3%. For the same compound, in series [9] (presence of asunaprevir), the “P production in virus-infected cells, immunoblotting” value is reported as “efficiently inhibited”. In series [9] (presence of asunaprevir, Vero cells, 72 hours), the “EGFP expression and formation of syncytia” value is recorded as “completely abolished”. The “YFP expression, episomal, GPD promoter” value in series [10] (3 μM asunaprevir) is reported as “undetectable levels; also recorded: completely suppressed”. The “YFP expression, YFP-SMASh integrated into yeast chromosome, GPD promoter” value in [10] (ASV, immunoblot) is “shutoff”. The “EGFP expression and formation of syncytia by parental virus” value in [11] is listed as “unaffected”.
Turning to `CC(C)C[C@@H](C=O)NC(=O)[C@H](CC(C)C)NC(=O)[C@H](CC(C)C)NC(=O)OCc1ccccc1` [MG132] (Cbz-Leu-Leu-Leu-aldehyde), the YFP-NS3pro-NS4A protein levels result in series [1] is listed as “modestly increased”.
For the compound “CYP21A2: short-lived protein, released from CYP21A2-SMASh by cleavage”, in series [12], the “acceleration of degradation by SMASh” value was found to be 9 fold and the “decay rate constant kdeg” value was 8.67e-05 s⁻¹. The “production rate constant ksyn” value in series [12] (24-28 hours post-transfection) came to 0.438 h⁻¹.
Take `CC(C)C[C@H](NC(=O)[C@H](Cc1ccccc1)NC(=O)c1cnccn1)B(O)O` [bortezomib]: the YFP-NS3pro-NS4A protein levels result in series [1] was “modestly increased”.
With `CO/C1=C\C(C)=C\[C@@H](C)[C@@H](O)[C@@H](C)C/C(C)=C/C=C/[C@H](OC)[C@@H]([C@@H](C)[C@@H](O)[C@H](C)[C@@]2(O)C[C@@H](O)[C@H](C)[C@@H](C(C)C)O2)OC1=O` [bafilomycin A1], the YFP-NS3pro-NS4A protein levels result in [1] is “modestly increased”.
On to `O=C(O)Cc1c[nH]c2ccccc12` [auxin], for which the “concentration required for AID to degrade a target protein” value in [13] is 1000 µM.
